Measurements: patent US10654818B2, “Furane derivatives as inhibitors of ATAD2” (BAYER PHARMA AKTIENGESELLSCHAFT, priority 2015, dated 2020)

target: T1, recombinant, N-terminally GST-tagged ATAD2 bromodomain amino acids 981-1108 (Homo sapiens, UniProt Q6PL18); assay: TR-FRET assay: disruption of the interaction between ATAD2 and acetylated Histone H4 (Ac-H4) peptide; format: binding; details: inhibition of ATAD2/Ac-H4 complex formation; 10 nM ATAD2, 50 nM Ac-H4 peptide
T1 construct: ATAD2 bromodomain amino acids 981-1108; made in house; host or cells: E. coli
T1 sequence (Q6PL18 981-1108): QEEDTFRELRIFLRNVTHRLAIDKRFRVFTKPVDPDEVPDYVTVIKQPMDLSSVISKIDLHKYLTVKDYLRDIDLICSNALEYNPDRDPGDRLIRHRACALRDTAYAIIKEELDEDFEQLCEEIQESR
Source text: The ability of the compounds described in the present invention to disrupt the interaction between ATAD2 and acetylated Histone H4 (Ac-H4) was used as quantitative measure of their ATAD2-binding affinities.
To this end a TR-FRET assay which detects the binding of an Ac-H4-derived synthetic peptide (purchased from e.g. Biosyntan (Berlin, Germany)) of sequence HSGRGKGGGGKGLGK(Ac)GGAKRHRK-Biotin to recombinant, N-terminally GST-tagged ATAD2 bromodomain amino acids 981-1108. The protein was produced in-house via E. coli expression followed by GSH-Sepharose affinity- and Superdex S200-size exclusion chromatography purification.
Typically, 11 different concentrations of each compound (0.1 nM, 0.33 nM, 1.1 nM, 3.8 nM, 13 nM, 44 nM, 0.15 μM, 0.51 μM, 1.7 μM, 5.9 μM and 20 μM) were tested in duplicate within the same microtiter plate. To this end, 100-fold concentrated compound solutions (in DMSO) were previously prepared with a Precision Pippeting System (BioTek) by serial dilution (1:3.4) of 2 mM stocks in clear, low-volume 384-well microtiter source plates (Greiner Bio-One). Subsequently, 50 nl of compounds were transferred into black, low-volume test plates from the same supplier using a Hummingbird capillary based liquid handling instrument (Digilab). Tests were started by the addition of 2 μl of 2.5-fold concentrated ATAD2 solution (25 nM=10 nM final concentration in the 5 μl assay volume) in aqueous assay buffer [50 mM HEPES pH 7.5, 50 mM potassium fluoride (KF), 100 mM sodium chloride (NaCl), 0.25 mM CHAPS, 0.05% bovine serum albumine (BSA) and 1 mM dithiothreitol (DTT)] to the compounds in the test plate with a Multidrop dispenser (Thermo-Fisher). Test plates were then incubated 10′ at 22° C., in order to allow pre-equilibration of putative compound-ATAD2 complexes. Subsequently, 3 μl of a 1.67-fold concentrated solution containing Ac-H4 peptide (83.5 nM=50 nM final concentration) and TR-FRET detection reagents [16.7 nM Anti-GST-XL665 (Cisbio), =10 nM final concentration and 4.17 nM Lance EU W-1024 Streptavidin Europium Chelate (Perkin-Elmer)=2.5 nM final concentration were dispensed into the plates.
The mixture was further incubated in the dark for 1 hour at 22° C. Finally the inhibition of the formation of ATAD2/Ac-H4 complexes was assessed by measurement of the resonance energy transfer from the Streptavidin-Eu-Chelate to the anti-GST-XL665 antibody present in the reaction. To this end, the fluorescence emissions at 622 nm and 665 nm after excitation at 337 nm were measured in a TR-FRET reader, e.g. a Rubystar or Pherastar (both from BMG Lab Technologies) or a Viewlux (Perkin-Elmer) and the ratio of the emissions at 665 nm and at 622 nm was taken as indicator for the amount of ATAD2/Ac-H4 complexes in equilibrium.
The data were normalized using two sets of control wells (16 each). The first accounted for 100% ATAD2/Ac-H4 binding (0% inhibition), and contained all reaction components but DMSO instead of inhibitors. The second represented 0% ATAD2/Ac-H4 binding (100% inhibition), and included all assay components except ATAD2. IC50 values were calculated by fitting the normalized inhibition data to a 4-parameter logistic equation using either Screener software (Genedata) or a Bayer-proprietary analysis software.

Row | IC50 [nM] | Structure (SMILES)
1 | 729 | Cc1ccc([C@@H](C)NCc2ccc(-c3ccc(Cl)c(C(=O)N[C@H](Cc4ccc(C#N)cc4)c4ncn[nH]4)c3)o2)cc1 [Example 20, 2-chloro-N-[(1R)-2-(4-cyanophenyl)-1-(1H-1,2,4-triazol-5-yl)ethyl]-5-[5-({[(1R)-1-(4-methylphenyl)ethyl]amino}methyl)-2-furyl]benzamide]
2 | 580 | Cc1ccc([C@@H](C)NCc2ccc(-c3ccc(Cl)c(C(=O)N[C@H](Cc4ccc(C#N)cc4)CN4CCN(C)CC4)c3)o2)cc1 [Example 21, 2-chloro-N-[(2R)-1-(4-cyanophenyl)-3-(4-methylpiperazin-1-yl)propan-2-yl]-5-[5-({[(1R)-1-(4-methylphenyl)ethyl]amino}methyl)-2-furyl]benzamide]
3 | 854 | Cc1ccc([C@@H](C)NCc2ccc(-c3ccc(Cl)c(C(=O)N[C@H](Cc4ccc(C#N)cc4)CN4CCOCC4)c3)o2)cc1 [Example 22, 2-chloro-N-[(2R)-1-(4-cyanophenyl)-3-(morpholin-4-yl)propan-2-yl]-5-[5-({[(1R)-1-(4-methylphenyl)ethyl]amino}methyl)-2-furyl]benzamide]
4 | 561 | Cc1ccc([C@@H](C)NCc2ccc(-c3ccc(Cl)c(C(=O)N[C@@H](CNCCO)Cc4ccc(C#N)cc4)c3)o2)cc1 [Example 23, 2-chloro-N-{(2R)-1-(4-cyanophenyl)-3-[(2-hydroxyethyl)amino]propan-2-yl}-5-[5-({[(1R)-1-(4-methylphenyl)ethyl]amino}methyl)-2-furyl]benzamide]
5 | 598 | Cc1ccc([C@@H](C)NCc2ccc(-c3ccc(Cl)c(C(=O)N[C@H](Cc4ccc(C#N)cc4)CN(C)C)c3)o2)cc1 [Example 24, 2-chloro-N-[(2R)-1-(4-cyanophenyl)-3-(dimethylamino)propan-2-yl]-5-[5-({[(1R)-1-(4-methylphenyl)ethyl]amino}methyl)-2-furyl]benzamide]
6 | 352 | Cc1ccc([C@@H](C)NCc2ccc(-c3ccc(Cl)c(C(=O)N[C@@H](CCN4CCN(C)CC4)Cc4ccc(C#N)cc4)c3)o2)cc1 [Example 25, 2-chloro-N-[(2R)-1-(4-cyanophenyl)-4-(4-methylpiperazin-1-yl)butan-2-yl]-5-[5-({[(1R)-1-(4-methylphenyl)ethyl]amino}methyl)-2-furyl]benzamide]
7 | 331 | Cc1ccc([C@@H](C)NCc2ccc(-c3ccc(Cl)c(C(=O)N[C@@H](CCNC(C)C)Cc4ccc(C#N)cc4)c3)o2)cc1 [Example 26, 2-chloro-N-[(2R)-1-(4-cyanophenyl)-4-(isopropylamino)butan-2-yl]-5-[5-({[(1R)-1-(4-methylphenyl)ethyl]amino}methyl)-2-furyl]benzamide]
8 | 116 | Cc1ccc([C@@H](C)NCc2ccc(-c3ccc(Cl)c(C(=O)N[C@@H](CCN4CCN[C@H](C)C4)Cc4ccc(C#N)cc4)c3)o2)cc1 [Example 27, 2-chloro-N-{(2R)-1-(4-cyanophenyl)-4-[(3R)-3-methylpiperazin-1-yl]butan-2-yl}-5-[5-({[(1R)-1-(4-methylphenyl)ethyl]amino}methyl)-2-furyl]benzamide]
9 | 148 | Cc1ccc([C@@H](C)NCc2ccc(-c3ccc(Cl)c(C(=O)N[C@@H](CCN4CCN[C@@H](C)C4)Cc4ccc(C#N)cc4)c3)o2)cc1 [Example 28, 2-chloro-N-{(2R)-1-(4-cyanophenyl)-4-[(3S)-3-methylpiperazin-1-yl]butan-2-yl}-5-[5-({[(1R)-1-(4-methylphenyl)ethyl]amino}methyl)-2-furyl]benzamide]
10 | 675 | Cc1ccc([C@@H](C)NCc2ccc(-c3ccc(Cl)c(C(=O)N[C@@H](CCN4CCOCC4)Cc4ccc(C#N)cc4)c3)o2)cc1 [Example 29, 2-chloro-N-[(2R)-1-(4-cyanophenyl)-4-(morpholin-4-yl)butan-2-yl]-5-[5-({[(1R)-1-(4-methylphenyl)ethyl]amino}methyl)-2-furyl]benzamide]
11 | 253 | Cc1ccc([C@@H](C)NCc2ccc(-c3ccc(Cl)c(C(=O)N[C@H](Cc4ccc(C#N)cc4)C(=O)NC4CCN(C)CC4)c3)o2)cc1 [Example 30, Nα-{2-chloro-5-[5-({[(1R)-1-(4-methylphenyl)ethyl]amino}methyl)-2-furyl]benzoyl}-4-cyano-N-(1-methylpiperidin-4-yl)-D-phenylalaninamide]
12 | 297 | Cc1ccc([C@@H](C)NCc2ccc(-c3ccc(Cl)c(C(=O)N[C@@H](CCN4CCN(C)C[C@@H]4C)Cc4ccc(C#N)cc4)c3)o2)cc1 [Example 31, 2-chloro-N-{(2R)-1-(4-cyanophenyl)-4-[(2S)-2,4-dimethylpiperazin-1-yl]butan-2-yl}-5-[5-({[(1R)-1-(4-methylphenyl)ethyl]amino}methyl)-2-furyl]benzamide]
13 | 130 | Cc1ccc([C@@H](C)NCc2ccc(-c3ccc(Cl)c(C(=O)N[C@@H](CCN4CCN(C)C[C@H]4C)Cc4ccc(C#N)cc4)c3)o2)cc1 [Example 32, 2-chloro-N-{(2R)-1-(4-cyanophenyl)-4-[(2R)-2,4-dimethylpiperazin-1-yl]butan-2-yl}-5-[5-({[(1R)-1-(4-methylphenyl)ethyl]amino}methyl)-2-furyl]benzamide]
14 | 423 | Cc1ccc([C@@H](C)NCc2ccc(-c3ccc(Cl)c(C(=O)N[C@@H](CCN[C@@H]4CCN(C)C4)Cc4ccc(C#N)cc4)c3)o2)cc1 [Example 34, 2-chloro-N-[(2R)-1-(4-cyanophenyl)-4-{[(3R)-1-methylpyrrolidin-3-yl]amino}butan-2-yl]-5-[5-({[(1R)-1-(4-methylphenyl)ethyl]amino}methyl)-2-furyl]benzamide]
15 | 466 | Cc1ccc([C@@H](C)NCc2ccc(-c3ccc(Cl)c(C(=O)N[C@@H](CCN[C@H]4CCN(C)C4)Cc4ccc(C#N)cc4)c3)o2)cc1 [Example 35, 2-chloro-N-[(2R)-1-(4-cyanophenyl)-4-{[(3S)-1-methylpyrrolidin-3-yl]amino}butan-2-yl]-5-[5-({[(1R)-1-(4-methylphenyl)ethyl]amino}methyl)-2-furyl]benzamide]
16 | 443 | Cc1ccc([C@@H](C)NCc2ccc(-c3ccc(Cl)c(C(=O)N[C@@H](CO)Cc4ccc(C#N)c(C)c4)c3)o2)cc1 [Example 37, 2-chloro-N-[(2R)-1-(4-cyano-3-methylphenyl)-3-hydroxypropan-2-yl]-5-[5-({[(1R)-1-(4-methylphenyl)ethyl]amino}methyl)-2-furyl]benzamide]
17 | 365 | Cc1ccc([C@@H](C)NCc2ccc(-c3ccc(Cl)c(C(=O)N[C@@H](CO)Cc4cc(F)c(C#N)cc4C)c3)o2)cc1 [Example 38, 2-chloro-N-[(2R)-1-(4-cyano-5-fluoro-2-methylphenyl)-3-hydroxypropan-2-yl]-5-[5-({[(1R)-1-(4-methylphenyl)ethyl]amino}methyl)-2-furyl]benzamide]
18 | 585 | COc1cc(C#N)ccc1C[C@H](CO)NC(=O)c1cc(-c2ccc(CN[C@H](C)c3ccc(C)cc3)o2)ccc1Cl [Example 39, 2-chloro-N-[(2R)-1-(4-cyano-2-methoxyphenyl)-3-hydroxypropan-2-yl]-5-[5-({[(1R)-1-(4-methylphenyl)ethyl]amino}methyl)-2-furyl]benzamide]
19 | 781 | Cc1ccc([C@@H](C)NCc2ccc(-c3ccc(Cl)c(C(=O)N[C@@H](CO)Cc4ccc(C#N)c(N)c4)c3)o2)cc1 [Example 40, N-[(2R)-1-(3-amino-4-cyanophenyl)-3-hydroxypropan-2-yl]-2-chloro-5-[5-({[(1R)-1-(4-methylphenyl)ethyl]amino}methyl)-2-furyl]benzamide]
